Data reported in ChEMBL document CHEMBL2069169, “Novel triazines as potent and selective phosphodiesterase 10A inhibitors” (Bioorg Med Chem Lett, 2012).

Tests used:
Phosphodiesterase 4 = Phosphodiesterase 4 (Homo sapiens, UniProt P27815+Q08499+Q07343+Q08493); test: Inhibition of PDE4; assay type: protein assay
Phosphodiesterase 3 = Phosphodiesterase 3 (Homo sapiens, UniProt Q14432+Q13370); test: Inhibition of PDE3; assay type: protein assay
Phosphodiesterase 6 = test: Inhibition of PDE6; assay type: protein assay, Homo sapiens
[1] = target: cAMP and cAMP-inhibited cGMP 3',5'-cyclic phosphodiesterase 10A (Homo sapiens, UniProt Q9Y233); test: Inhibition of human recombinant PDE10A-catalyzed cAMP hydrolysis
cAMP and cAMP-inhibited cGMP 3',5'-cyclic phosphodiesterase 10A, sequence (Q9Y233 whole entry): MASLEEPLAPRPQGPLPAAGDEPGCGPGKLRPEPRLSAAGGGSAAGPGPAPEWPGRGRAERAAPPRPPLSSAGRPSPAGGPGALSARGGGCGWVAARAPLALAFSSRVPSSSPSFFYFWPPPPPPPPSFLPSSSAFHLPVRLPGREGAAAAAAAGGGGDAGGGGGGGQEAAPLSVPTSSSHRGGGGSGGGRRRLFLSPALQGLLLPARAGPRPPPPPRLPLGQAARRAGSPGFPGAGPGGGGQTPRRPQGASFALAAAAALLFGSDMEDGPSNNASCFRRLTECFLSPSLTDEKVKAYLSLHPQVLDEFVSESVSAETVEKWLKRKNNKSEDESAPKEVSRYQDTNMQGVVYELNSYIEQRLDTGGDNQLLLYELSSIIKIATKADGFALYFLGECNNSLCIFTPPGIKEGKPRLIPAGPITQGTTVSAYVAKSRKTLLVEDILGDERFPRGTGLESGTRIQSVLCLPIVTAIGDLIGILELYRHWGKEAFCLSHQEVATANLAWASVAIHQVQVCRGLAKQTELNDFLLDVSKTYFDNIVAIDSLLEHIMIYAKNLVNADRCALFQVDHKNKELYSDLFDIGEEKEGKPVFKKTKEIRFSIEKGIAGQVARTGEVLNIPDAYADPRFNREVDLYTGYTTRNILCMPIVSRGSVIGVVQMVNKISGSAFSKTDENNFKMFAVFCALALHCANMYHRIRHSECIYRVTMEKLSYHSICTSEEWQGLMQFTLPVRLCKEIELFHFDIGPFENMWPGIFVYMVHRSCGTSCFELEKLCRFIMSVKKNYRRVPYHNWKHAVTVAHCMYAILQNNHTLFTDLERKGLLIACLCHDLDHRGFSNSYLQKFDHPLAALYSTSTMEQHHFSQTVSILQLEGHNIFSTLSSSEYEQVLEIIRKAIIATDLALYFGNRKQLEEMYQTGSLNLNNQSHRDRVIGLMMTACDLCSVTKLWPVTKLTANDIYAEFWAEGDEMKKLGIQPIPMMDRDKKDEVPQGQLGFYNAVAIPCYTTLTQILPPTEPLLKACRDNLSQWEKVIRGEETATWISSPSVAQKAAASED

[2] = target: cGMP-specific 3',5'-cyclic phosphodiesterase (Canis lupus familiaris, UniProt O77746); test: Inhibition of PDE5; set-up: species or system Homo sapiens
[3] = target: cGMP-dependent 3',5'-cyclic phosphodiesterase (Homo sapiens, UniProt O00408); test: Inhibition of PDE2
cGMP-dependent 3',5'-cyclic phosphodiesterase, sequence (O00408 whole entry): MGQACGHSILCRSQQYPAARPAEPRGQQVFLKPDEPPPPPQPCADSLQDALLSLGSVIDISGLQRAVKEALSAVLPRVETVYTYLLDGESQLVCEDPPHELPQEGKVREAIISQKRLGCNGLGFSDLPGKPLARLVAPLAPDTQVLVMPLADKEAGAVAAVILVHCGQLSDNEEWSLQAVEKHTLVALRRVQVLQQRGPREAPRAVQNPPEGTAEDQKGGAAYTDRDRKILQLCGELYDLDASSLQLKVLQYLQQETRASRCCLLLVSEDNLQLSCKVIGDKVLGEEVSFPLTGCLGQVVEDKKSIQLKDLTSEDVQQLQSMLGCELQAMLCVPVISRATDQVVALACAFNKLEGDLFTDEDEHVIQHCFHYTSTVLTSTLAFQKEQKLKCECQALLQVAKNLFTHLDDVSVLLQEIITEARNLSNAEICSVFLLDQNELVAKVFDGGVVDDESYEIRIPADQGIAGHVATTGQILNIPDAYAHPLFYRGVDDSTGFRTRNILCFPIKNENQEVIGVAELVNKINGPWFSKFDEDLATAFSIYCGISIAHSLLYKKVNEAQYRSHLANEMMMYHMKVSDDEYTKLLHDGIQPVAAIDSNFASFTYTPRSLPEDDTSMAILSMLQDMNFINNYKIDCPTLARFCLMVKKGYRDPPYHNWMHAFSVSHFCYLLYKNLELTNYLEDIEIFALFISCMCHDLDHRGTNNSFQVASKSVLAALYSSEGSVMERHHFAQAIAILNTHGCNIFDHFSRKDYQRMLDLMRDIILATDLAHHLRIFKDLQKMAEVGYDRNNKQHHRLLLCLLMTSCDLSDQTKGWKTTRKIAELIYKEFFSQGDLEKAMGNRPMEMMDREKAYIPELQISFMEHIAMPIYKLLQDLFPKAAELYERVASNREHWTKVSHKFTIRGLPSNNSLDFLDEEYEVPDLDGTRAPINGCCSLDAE

Homo sapiens [4] = species: Homo sapiens; test: Selectivity ratio of IC50 PDE5 to IC50 for human recombinant PDE10A
Homo sapiens [5] = species: Homo sapiens; test: Selectivity ratio of IC50 PDE3 to IC50 for human recombinant PDE10A
Homo sapiens [6] = species: Homo sapiens; test: Selectivity ratio of IC50 PDE2 to IC50 for human recombinant PDE10A
Homo sapiens [7] = species: Homo sapiens; test: Selectivity ratio of IC50 PDE8 to IC50 for human recombinant PDE10A
Homo sapiens [8] = species: Homo sapiens; test: Selectivity ratio of IC50 PDE4 to IC50 for human recombinant PDE10A
Homo sapiens [9] = species: Homo sapiens; test: Selectivity ratio of IC50 PDE9 to IC50 for human recombinant PDE10A
Homo sapiens [10] = species: Homo sapiens; test: Selectivity ratio of IC50 PDE11 to IC50 for human recombinant PDE10A
Homo sapiens [11] = species: Homo sapiens; test: Selectivity ratio of IC50 PDE7 to IC50 for human recombinant PDE10A
Homo sapiens [12] = species: Homo sapiens; test: Selectivity ratio of IC50 PDE6 to IC50 for human recombinant PDE10A
Homo sapiens [13] = species: Homo sapiens; test: Selectivity ratio of IC50 PDE1 to IC50 for human recombinant PDE10A
[14] = AUC in rat plasma at 2 mg/kg, iv and 10 mg/kg, po; assay type: ADME, organism-based
[15] = Clearance in rat at 2 mg/kg, iv and 10 mg/kg, po; assay type: ADME, organism-based; conditions: in vivo
[16] = Volume of distribution at steady state in rat at 2 mg/kg, iv and 10 mg/kg, po; assay type: ADME, organism-based; conditions: in vivo, read-out: Vdss
Rattus norvegicus [17] = test: Antipsychotic activity in po dosed rat assessed as reduction of MK801-induced stereotyped sniffing; assay type: functional; set-up: Activity: scale not given: the % may be the effect or the level left; conditions: for minimal effective dose: Rattus norvegicus, po, read-out: MED
[18] = Oral bioavailability in rat at 10 mg/kg; assay type: ADME, organism-based; conditions: in vivo
[19] = AUC in rat brain at 2 mg/kg, iv and 10 mg/kg, po; assay type: ADME, organism-based
[20] = Elimination half life in rat at 2 mg/kg, iv and 10 mg/kg, po; assay type: ADME, organism-based; conditions: in vivo, read-out: beta t1/2 (converted)
Rattus norvegicus [21] = test: Antipsychotic activity in po dosed rat assessed as reduction of MK801-induced hyperactivity; assay type: functional; set-up: Activity: scale not given: the % may be the effect or the level left; conditions: for minimal effective dose: Rattus norvegicus, po, read-out: MED

Structure (SMILES)	IC50 (Phosphodiesterase 4) [nM]	IC50 (Phosphodiesterase 3) [nM]	IC50 (Phosphodiesterase 6) [nM]	IC50 [1] [nM]	IC50 [2] [nM]	IC50 [3] [nM]	further results
COc1cc(F)cc2c1nnc1c(C)nc(-c3ccncc3C)n12	> 10000	> 10000	> 10000	7.2	> 10000	1220	
COc1cc(F)c2nnc3c(C)nc(-c4sccc4C)n3c2c1	3670	2250	1230		2780		
COc1ccnc2c1nnc1c(C)nc(-c3cccnc3C)n12	6960	> 10000	> 5000	12.4	> 5000	974	Ratio IC50 (Homo sapiens [4]): > 100; Ratio IC50 (Homo sapiens [5]): > 100; Ratio IC50 (Homo sapiens [6]): > 100; Ratio IC50 (Homo sapiens [7]): > 500; Ratio IC50 (Homo sapiens [8]): > 100; Ratio IC50 (Homo sapiens [9]): > 500; Ratio IC50 (Homo sapiens [10]): > 500; Ratio IC50 (Homo sapiens [11]): > 500; Ratio IC50 (Homo sapiens [12]): > 100; Ratio IC50 (Homo sapiens [13]): > 500
COc1cc(F)cc2c1nnc1c(C)nc(-c3c(C)nn(C)c3C)n12	> 10000	> 10000	> 5000		> 10000		
COc1cc(F)cc2c1nnc1c(C)nc(-c3sc(C)nc3C)n12	2460	> 10000	3880		4760		
COc1cc(F)cc2c1nnc1c(C)nc(-c3cccc(F)c3C)n12	> 1000	> 1000	> 1000		> 1000		
COc1cc(C(F)(F)F)cc2c1nnc1c(C)nc(-c3cnccc3C)n12	> 10001	> 10000	5250	5.11	> 10000	864	
COc1cc(F)cc2c1nnc1c(C)nc(-c3sccc3C)n12	7720	> 10000	3270		3600		
COc1cc(N2CCOCC2)cc2c1nnc1c(C)nc(-c3ccccc3Cl)n12	2680	> 10000	276		603		
COc1cc(N2CCOCC2)cc2c1nnc1c(C)nc(-c3ccncc3C)n12	> 10000	> 10000	3120		5380	4.37	
COc1ccc2nnc3c(C)nc(-c4ccccc4C)n3c2n1	> 10000	> 5000	1570	47.6	3410		
COc1cc(OC)c2nnc3c(C)nc(-c4cnccc4C)n3c2c1	> 10000	> 10000	1822		5070		AUC [14]: 8790 ng·h/mL; clearance [15]: 14 mL/min/kg; Vd [16]: 0.5 L/kg; Activity (Rattus norvegicus [17]): 69.8%; minimal effective dose (Rattus norvegicus [17]): 1 mg/kg; bioavailability [18]: 100%; AUC [19]: 3000 ng·h/mL; half-life [20]: 48 min; Activity (Rattus norvegicus [21]): 79.9%; minimal effective dose (Rattus norvegicus [21]): 1 mg/kg
COc1cc(OC)c2nnc3c(C)nc(-c4ccncc4C)n3c2c1	> 10000	> 10000	1240		4950		AUC [14]: 18700 ng·h/mL; clearance [15]: 13 mL/min/kg; Vd [16]: 0.4 L/kg; Ratio IC50 (Homo sapiens [6]): 300; Activity (Rattus norvegicus [17]): 57.4%; minimal effective dose (Rattus norvegicus [17]): 0.5 mg/kg; bioavailability [18]: 100%; AUC [19]: 2780 ng·h/mL; half-life [20]: 54 min; Activity (Rattus norvegicus [21]): 71.7%; minimal effective dose (Rattus norvegicus [21]): 0.5 mg/kg
COc1cccc2c1nnc1c(C)nc(-c3ccccc3Cl)n12	70.8	> 10000	1060		3060		
COc1ccc2nnc3c(C)nc(-c4cc(OC(C)C)ccc4F)n3c2n1				2430		102	
COc1cc(C(F)(F)F)cc2c1nnc1c(C)nc(-c3cccc(F)c3C)n12	> 5000	> 5000	1260	1.85	2130	722	
COc1cc(OC(F)F)cc2c1nnc1c(C)nc(-c3ccncc3C)n12	> 10000	> 10000	909	7	4020	944	
COc1ccc2nnc3c(C)nc(-c4ccc(Cl)cc4Cl)n3c2n1	> 1000	> 1000	> 1000		> 1000		

Structure (SMILES)	IC50 (Phosphodiesterase 4) [nM]	IC50 (Phosphodiesterase 3) [nM]	IC50 (Phosphodiesterase 6) [nM]	IC50 [1] [nM]	IC50 [2] [nM]	IC50 [3] [nM]	further results
COc1ccc2nnc3c(C)nc(-c4ccc(F)cc4C)n3c2n1	> 10000	7260	1150	45.9	34100	13.2	
COc1cc(OC)c2nnc3c(C)nc(-c4cccnc4C)n3c2c1	> 10000	> 10000	493		1430		AUC [14]: 21300 ng·h/mL; clearance [15]: 4 mL/min/kg; Vd [16]: 0.4 L/kg; Activity (Rattus norvegicus [17]): 71.3%; minimal effective dose (Rattus norvegicus [17]): 0.25 mg/kg; bioavailability [18]: 100%; AUC [19]: 6590 ng·h/mL; half-life [20]: 120 min; Activity (Rattus norvegicus [21]): 90.2%; minimal effective dose (Rattus norvegicus [21]): 0.25 mg/kg
COc1ccccc1-c1nc(C)c2nnc3c(OC)cc(F)cc3n12	> 10000	> 10000	> 10000		> 10000		
COc1cccc2c1nnc1c(C)nc(-c3ccccc3C)n12	176	> 10000	1980		3670		Ratio IC50 (Homo sapiens [6]): 60
COc1ccc2nnc3c(C)nc(-c4cc(Cl)ccc4Cl)n3c2n1	4410	750	829	53.1	1150	2.06	
COc1cc(F)c2nnc3c(C)nc(-c4ccccc4OC)n3c2c1	> 1000	> 1000	> 1000		> 1000		Ratio IC50 (Homo sapiens [6]): > 400
COc1cc(F)cc2c1nnc1c(C)nc(-c3cccnc3C)n12	> 10000	> 10000	2830	7.84	> 5000	1270	
COc1cc(OC)c2nnc3c(C)nc(-c4ccccc4Cl)n3c2c1	1910	> 5000	73.15		436	30.3	Activity (Rattus norvegicus [17]): 55.7%; minimal effective dose (Rattus norvegicus [17]): 0.5 mg/kg; Activity (Rattus norvegicus [21]): 70.3%; minimal effective dose (Rattus norvegicus [21]): 0.5 mg/kg
COc1ccc2nnc3c(C)nc(-c4ccc(F)cc4Cl)n3c2n1	> 1000	> 1000	462		> 1000		
COc1cc(OC)c2nnc3c(C)nc(-c4ccccc4C(F)(F)F)n3c2c1	> 1000	> 1000	> 1000	3.35	> 1000	522	
COc1cccc(-c2nc(C)c3nnc4c(OC)cc(F)cc4n23)c1	> 1000	> 1000	> 1000		> 1000	2000	
COc1cc(OC)c2nnc3c(C)nc(-c4ccccc4C)n3c2c1	> 10000	> 10000	349	5.13	1110	95.9	
COc1cc(F)cc2c1nnc1c(C)nc(-c3cnccc3C)n12	> 10000	> 10000	> 10000		> 10000		
COc1ccc2nnc3c(C)nc(-c4ccccc4Cl)n3c2n1	> 10000	1240	435	13.1	1680	4.3	
COc1ccnc2c1nnc1c(C)nc(-c3ccncc3C)n12	3680	> 10000	> 10000		> 10000		Ratio IC50 (Homo sapiens [4]): > 100; Ratio IC50 (Homo sapiens [5]): > 100; Ratio IC50 (Homo sapiens [6]): > 100; Activity (Rattus norvegicus [17]): 34.1%; minimal effective dose (Rattus norvegicus [17]): 2.5 mg/kg; Ratio IC50 (Homo sapiens [8]): > 100; Ratio IC50 (Homo sapiens [12]): > 100; Activity (Rattus norvegicus [21]): 55.4%; minimal effective dose (Rattus norvegicus [21]): 2.5 mg/kg
COc1ccc(F)c(-c2nc(C)c3nnc4ccc(OC)nc4n23)c1	4820	1820	734		702		
COc1cc(N2CCOCC2)cc2c1nnc1c(C)nc(-c3ccccc3C)n12	2920	> 10000	693		651		
